From publication PMC3024946, “Hydroxyproline-containing collagen analogs trigger the release and activation of collagen-sequestered proMMP-2 by competition with prodomain-derived peptide P33-42” (Fibrogenesis & Tissue Repair, 2011)

Assays:
actMMP-2 / CI = target: T1, actMMP-2 / CI (Homo sapiens, UniProt P08253); experiment: SPR, competition of actMMP-2 binding to CI, nonactivating buffer
T1 construct: purchased Invitek
T1 sequence (P08253 110-660): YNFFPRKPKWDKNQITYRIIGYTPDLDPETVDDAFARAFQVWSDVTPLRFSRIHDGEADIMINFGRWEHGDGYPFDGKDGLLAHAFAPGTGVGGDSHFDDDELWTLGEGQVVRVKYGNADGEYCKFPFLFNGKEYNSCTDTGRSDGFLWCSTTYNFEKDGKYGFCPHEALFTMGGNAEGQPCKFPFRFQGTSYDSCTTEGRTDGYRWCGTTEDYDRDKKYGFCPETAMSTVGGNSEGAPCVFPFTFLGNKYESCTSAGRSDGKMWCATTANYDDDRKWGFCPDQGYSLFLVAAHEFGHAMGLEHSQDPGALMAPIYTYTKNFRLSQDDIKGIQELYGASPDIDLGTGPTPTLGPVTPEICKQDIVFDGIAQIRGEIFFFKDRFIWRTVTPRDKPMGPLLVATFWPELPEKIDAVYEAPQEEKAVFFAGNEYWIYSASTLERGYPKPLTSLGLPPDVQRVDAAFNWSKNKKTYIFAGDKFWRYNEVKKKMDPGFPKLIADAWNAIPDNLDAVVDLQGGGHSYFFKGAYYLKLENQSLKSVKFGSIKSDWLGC
Description: (§1) Sensor chip preparations and SPR measurements were performed using a BiacoreX device and the Bia-evaluation software (version 3.2; Biacore, Uppsala, Sweden). The pepsin-resistant triple-helical part of human fibrillar CI (100 μg/ml) in 10 mM acetate coupling buffer, pH 4.8, was immobilized to a dextran matrix-sensor chip at a flow rate of 5 μl/min, resulting in 5,500 resonance units from CI covalently linked via its primary amino groups. The control flow cell was prepared using the coupling buffer without CI. Surfaces were activated and blocked as described previously. […] The effects of (GPO)10, GAP, (POG)5, (GPP)10 and P33-42 on MMP-2 and MMP-9 binding to CI and their enzymatic activity were determined by adding the binding competitors to the (pro- and act)MMP-2 and MMP-9 solution in 10- to 150-fold molar excesses. Effects independent of MMP-2 and MMP-9 activity were monitored in the presence of Ro 28-2653 (1 μM) during SPR analysis. […] Kinetic parameters were analyzed using the 1:1 binding model with drifting baseline and subtraction of the control flow cell binding from sensorgrams obtained with immobilized CI. Binding constants (Kd) were calculated from the association (ka) and dissociation rates (kd) obtained from individual binding curves at different concentrations. […]

proMMP-9 / CI [1] = target: T2, proMMP-9 / CI (Homo sapiens, UniProt P14780); experiment: SPR, competition of proMMP-9 binding to CI, nonactivating buffer
T2 construct: prodomain-containing proMMP-2 or proMMP-9; purchased Invitek
T2 sequence (P14780 20-707 limits assumed): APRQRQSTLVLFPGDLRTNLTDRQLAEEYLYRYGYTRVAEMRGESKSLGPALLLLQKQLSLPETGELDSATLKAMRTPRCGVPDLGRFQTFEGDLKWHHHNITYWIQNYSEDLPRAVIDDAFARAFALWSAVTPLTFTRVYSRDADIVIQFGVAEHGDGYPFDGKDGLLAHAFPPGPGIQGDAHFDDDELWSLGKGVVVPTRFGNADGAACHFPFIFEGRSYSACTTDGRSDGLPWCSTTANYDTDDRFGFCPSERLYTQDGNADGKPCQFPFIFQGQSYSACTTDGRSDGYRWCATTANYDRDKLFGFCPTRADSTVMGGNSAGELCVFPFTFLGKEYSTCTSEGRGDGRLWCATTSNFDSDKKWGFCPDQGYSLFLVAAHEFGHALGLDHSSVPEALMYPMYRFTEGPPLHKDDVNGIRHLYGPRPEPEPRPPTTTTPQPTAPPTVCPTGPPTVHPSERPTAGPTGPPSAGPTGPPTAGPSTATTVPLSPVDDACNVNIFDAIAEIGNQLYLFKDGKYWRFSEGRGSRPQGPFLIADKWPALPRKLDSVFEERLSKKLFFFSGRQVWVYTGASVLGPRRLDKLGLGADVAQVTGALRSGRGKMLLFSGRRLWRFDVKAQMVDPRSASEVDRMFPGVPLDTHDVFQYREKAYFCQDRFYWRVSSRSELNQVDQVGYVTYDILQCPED
Description: as §1

proMMP-2 / CI [2] = target: T3, proMMP-2 / CI (Homo sapiens, UniProt P08253); experiment: SPR, competition of proMMP-2 binding to CI, MMP activity buffer; conditions: proMMP-2 (25-150 nM), 10-fold molar excess, no inhibitor
T3 construct: prodomain-containing proMMP-2 or proMMP-9; purchased Invitek
T3 sequence (P08253 30-660 limits assumed): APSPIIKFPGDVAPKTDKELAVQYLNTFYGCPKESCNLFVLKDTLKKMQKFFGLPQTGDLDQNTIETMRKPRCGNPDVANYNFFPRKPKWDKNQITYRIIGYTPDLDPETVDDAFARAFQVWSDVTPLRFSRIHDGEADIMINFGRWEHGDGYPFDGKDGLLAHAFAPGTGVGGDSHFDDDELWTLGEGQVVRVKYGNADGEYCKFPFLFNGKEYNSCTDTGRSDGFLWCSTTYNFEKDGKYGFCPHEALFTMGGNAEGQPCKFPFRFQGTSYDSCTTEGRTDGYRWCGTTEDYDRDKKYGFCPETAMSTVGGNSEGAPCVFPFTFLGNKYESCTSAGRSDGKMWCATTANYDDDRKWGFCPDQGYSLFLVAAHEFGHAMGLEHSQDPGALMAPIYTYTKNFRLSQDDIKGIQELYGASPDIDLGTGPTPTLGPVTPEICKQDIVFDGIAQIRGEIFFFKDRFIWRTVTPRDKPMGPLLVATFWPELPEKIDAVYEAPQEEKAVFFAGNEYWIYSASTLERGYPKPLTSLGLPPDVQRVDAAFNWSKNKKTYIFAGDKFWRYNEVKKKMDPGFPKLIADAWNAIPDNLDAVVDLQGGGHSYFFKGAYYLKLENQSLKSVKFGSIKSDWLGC
Description: as §1

proMMP-2 / CI [3] = target: T3, proMMP-2 / CI; experiment: SPR, competition of proMMP-2 binding to CI, nonactivating buffer
Description: as §1

proMMP-9 / CI [4] = target: T2, proMMP-9 / CI; experiment: SPR, competition of proMMP-9 binding to CI, MMP activity buffer; conditions: proMMP-9 (25-150 nM), 10-fold molar excess
Description: as §1

- Off rate (actMMP-2 / CI; actMMP-2 (100 nM) binding to CI with 10× (GPO)10, PBS, 0.05% Tween 20): 0.56 s⁻¹
- effect on binding to CI (actMMP-2 / CI; actMMP-2, 10-fold molar excess): only slightly impaired
- Off rate (proMMP-9 / CI [1]; proMMP-9 (100 nM) binding to CI with 10× (GPO)10, PBS, 0.05% Tween 20): 0.22 s⁻¹
- effect on binding to CI (proMMP-9 / CI [1]; proMMP-9, 10-fold molar excess): more pronounced effects
- Off rate (proMMP-2 / CI [3]; proMMP-2 (100 nM) binding to CI with 10× (GPO)10, PBS, 0.05% Tween 20): 0.37 s⁻¹
- effect on binding to CI (proMMP-2 / CI [3]; proMMP-2, 10-fold molar excess): only slightly impaired
- effect on binding to CI (proMMP-9 / CI [4]): abolished binding of proMMP-9 to CI
Substance: H-Gly-Cys-Hyp-(Gly-Pro-Hyp)10-Gly-Cys-Hyp-Gly-NH2 [(GPO)10, triple-helical Hyp-containing collagen analog]
- effect on SPR signal on CI (proMMP-2 / CI [2]): reduction in resonance units below baseline levels
